Test [1] addresses T1, THR beta (Homo sapiens, UniProt P10828).
T1 construct: expressed in transfected cells; host or cells: HEK293T (ATCC CRL-3216)
T1 sequence (P10828 1-461): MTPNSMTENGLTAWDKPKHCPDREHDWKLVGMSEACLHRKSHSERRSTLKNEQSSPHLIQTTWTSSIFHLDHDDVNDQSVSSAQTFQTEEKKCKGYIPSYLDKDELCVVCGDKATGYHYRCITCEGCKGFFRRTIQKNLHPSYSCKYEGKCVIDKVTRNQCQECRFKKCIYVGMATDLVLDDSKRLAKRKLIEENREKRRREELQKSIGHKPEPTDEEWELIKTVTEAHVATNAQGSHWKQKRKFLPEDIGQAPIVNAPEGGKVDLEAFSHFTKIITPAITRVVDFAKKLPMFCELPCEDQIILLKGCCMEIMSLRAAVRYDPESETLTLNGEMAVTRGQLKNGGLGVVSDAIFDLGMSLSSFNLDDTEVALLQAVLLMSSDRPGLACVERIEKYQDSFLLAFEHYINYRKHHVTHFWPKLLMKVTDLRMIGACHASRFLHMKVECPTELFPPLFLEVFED
T1 sequence (P19793 1-462 partner): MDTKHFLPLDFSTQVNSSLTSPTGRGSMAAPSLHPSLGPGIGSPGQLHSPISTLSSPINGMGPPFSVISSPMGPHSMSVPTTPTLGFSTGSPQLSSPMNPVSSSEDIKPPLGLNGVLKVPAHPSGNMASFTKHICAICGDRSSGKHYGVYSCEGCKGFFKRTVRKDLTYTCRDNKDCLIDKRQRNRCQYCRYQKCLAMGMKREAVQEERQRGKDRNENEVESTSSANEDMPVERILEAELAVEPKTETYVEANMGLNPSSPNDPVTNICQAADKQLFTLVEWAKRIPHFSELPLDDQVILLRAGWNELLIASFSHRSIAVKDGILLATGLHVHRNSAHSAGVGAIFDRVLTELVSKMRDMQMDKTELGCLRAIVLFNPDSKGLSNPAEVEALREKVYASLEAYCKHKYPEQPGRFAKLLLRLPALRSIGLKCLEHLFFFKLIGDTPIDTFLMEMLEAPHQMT
As to the kind of experiment: HEK293T THR beta/RXR luciferase reporter assay (Assay 2). It counts as cell-based. The note with it: for Emax: HEK-293T, Table 5, Assay 2, THRβ, read-out: Activity category Assay 2 THRβ (Emax); for EC50: THR-beta, HEK293T reporter assay, read-out: Activity category Assay 2 (EC50, THR-beta agonist). In a few lines: (§1)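 HEK293T cells transiently transfected with TRE-luciferase reporter, RXR, and THR alpha or THR beta plasmid; ten five-fold compound dilutions from DMSO added for 18-24 h. One-Glo luminescence read; percent agonism normalized between negative and positive controls.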
(In general: In a reporter assay the amount or activity of a reporter protein is the signal.)

Test [2] concerns the target T2, human thyroid receptor beta ligand-binding domain (LBD) (Homo sapiens, UniProt P10828).
T2 construct: purchased Invitrogen
T2 sequence (P10828 217-461 limits assumed): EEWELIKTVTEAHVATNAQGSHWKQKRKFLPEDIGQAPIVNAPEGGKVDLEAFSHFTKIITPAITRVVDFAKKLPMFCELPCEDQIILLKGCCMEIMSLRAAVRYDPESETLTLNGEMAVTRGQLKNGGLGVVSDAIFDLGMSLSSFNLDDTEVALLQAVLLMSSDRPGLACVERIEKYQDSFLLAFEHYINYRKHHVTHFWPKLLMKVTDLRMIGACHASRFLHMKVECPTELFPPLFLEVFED
As to the kind of experiment: TR-FRET thyroid receptor beta coactivator assay (THR biochemical assay, Assay 1). The conditions noted are these: for EC50: THR-beta, TR-FRET coactivator assay, read-out: Activity category Assay 1 (EC50, THR-beta agonist); for Emax: Table 5, Assay 1, THRβ, read-out: Activity category Assay 1 THRβ (Emax). In a few lines: (§2)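 GST-tagged human TRβ or TRα LBD, 1 nM final (stated for β), with fluorescein-SRC2-2 coactivator peptide (200 nM) and Tb-anti-GST antibody (2 nM). Agonists serially diluted, 1% DMSO final. 1 h incubation at rt in the dark; TR-FRET read as rise in fluorescein and drop in terbium emission.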

For test [3], the target named is T3, human thyroid receptor alpha ligand-binding domain (LBD) (Homo sapiens, UniProt P10827).
T3 construct: purchased Invitrogen
As to the kind of experiment: TR-FRET thyroid receptor alpha coactivator assay (THR biochemical assay, Assay 1). The conditions noted are these: for EC50: Table 4, THR-alpha, read-out: Activity category Assay 1 (EC50, THR-alpha agonist activity); for Emax: Table 5, THRα, read-out: Activity category Assay 1 THRα (Emax). Put shortly:
as §2
Background: TR-FRET usually uses a lanthanide donor and a delayed reading to cut background.

The target in test [4] is T4, THR alpha (Homo sapiens, UniProt P10827).
T4 construct: expressed in transfected cells; host or cells: HEK293T (ATCC CRL-3216)
T4 sequence (P10827 1-410 isoform P10827-2): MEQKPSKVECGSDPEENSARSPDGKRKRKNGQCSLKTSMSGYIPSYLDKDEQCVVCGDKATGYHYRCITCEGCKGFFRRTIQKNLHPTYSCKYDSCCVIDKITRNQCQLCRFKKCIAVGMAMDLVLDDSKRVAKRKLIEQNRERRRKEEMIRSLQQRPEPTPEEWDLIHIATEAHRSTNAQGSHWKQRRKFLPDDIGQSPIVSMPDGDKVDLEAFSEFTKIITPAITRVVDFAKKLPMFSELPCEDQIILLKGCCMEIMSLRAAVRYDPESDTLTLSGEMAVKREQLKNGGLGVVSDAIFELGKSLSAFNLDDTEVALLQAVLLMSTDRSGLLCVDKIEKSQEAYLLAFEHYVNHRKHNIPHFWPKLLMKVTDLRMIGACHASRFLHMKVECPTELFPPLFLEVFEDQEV
T4 sequence (P19793 1-462 partner): T1 sequence (P19793 1-462 partner)
As to the kind of experiment: HEK293T THR alpha/RXR luciferase reporter assay (Assay 2). Type of test: cell-based. The note with it: Assay 2; for Emax: HEK-293T, Table 5, THRα, read-out: Activity category Assay 2 THRα (Emax); for EC50: Table 4, THR-alpha, read-out: Activity category Assay 2 (EC50, THR-alpha agonist activity). In a few lines:
as §1

A word on the Emax: it is the size of the effect at its maximum, as opposed to the concentration needed. As usually defined, the EC50 is the concentration needed to bring the measured effect to its halfway point.

`CC(C)c1cc(Oc2c(Br)cc(-n3nc(N)c(=O)[nH]c3=O)cc2Br)n[nH]c1=O` [Compound 81, 6-Amino-2-(3,5-dibromo-4-((5-isopropyl-6-oxo-1,6-dihydropyridazin-3-yl)oxy)phenyl)-1,2,4-triazine-3,5(2H,4H)-dione]: the Emax was above 75% in test [1], 50 to 75% in test [2], 50 to 75% in test [3] and above 75% in test [4]. Further, the EC50 in test [1], in test [2], in test [3] and in test [4] was below 50 nM each time.

Take `Nc1nn(-c2cc(Cl)c(Oc3cc(Cc4ccccc4)c(=O)[nH]n3)c(Cl)c2)c(=O)[nH]c1=O` [Compound 65, 6-amino-2-[4-[(5-benzyl-6-hydroxypyridazin-3-yl)oxy]-3,5-dichlorophenyl]-4H-1,2,4-triazine-3,5-dione]: the Emax is above 75% in test [1], below 50% in test [2], below 50% in test [3] and below 50% in test [4]. Besides, the EC50 in test [1] was 50 to 250 nM; in test [2], below 50 nM; in test [3], 250 to 1000 nM; in test [4] it was 1000 to 10000 nM.

As to `Nc1nn(-c2cc(Cl)c(Oc3cc(C45CC(C4)C5)c(=O)[nH]n3)c(Cl)c2)c(=O)[nH]c1=O` [Compound 95], the Emax was above 75% in test [1], below 50% in test [2], below 50% in test [3] and below 50% in test [4]. Besides, the EC50 in test [1] fell in the range of 50 to 250 nM; in test [2], 50 to 250 nM; in test [3], 250 to 1000 nM; in test [4], 250 to 1000 nM.

Take `Nc1nn(-c2cc(Cl)c(Oc3cc(C4CC(F)(F)C4)c(=O)[nH]n3)c(Cl)c2)c(=O)[nH]c1=O` [Compound 106]: the Emax in test [1] is 50 to 75%; in test [2], below 50%; in test [3] it was below 50%; in test [4], below 50%. The EC50 fell in the range of 1000 to 10000 nM in test [1], 250 to 1000 nM in test [2], 1000 to 25000 nM in test [3] and 1000 to 10000 nM in test [4].

For `CC(C)(C)c1cc(Oc2c(Cl)cc(-n3nc(N)c(=O)[nH]c3=O)cc2Cl)n[nH]c1=O` [Compound 73, 6-Amino-2-(4-((5-(t-butyl)-6-oxo-1,6-dihydropyridazin-3-yl)oxy)-3,5-dichlorophenyl)-1,2,4-triazine-3,5(2H, 4H)-dione], the Emax in test [1] is above 75%; in test [2] it was below 50%; in test [3], 50 to 75%; in test [4], above 75%. The EC50 in test [1] was in the range of 50 to 250 nM; in test [2], 50 to 250 nM; in test [3], 250 to 1000 nM; in test [4], 250 to 1000 nM.

For the compound `Nc1nn(-c2cc(Cl)c(Oc3ccc4c(c3)C3(CC3)C(=O)N4)c(Cl)c2)c(=O)[nH]c1=O` [Compound 143], the Emax was above 75% in test [1], 50 to 75% in test [2], above 75% in test [3] and above 75% in test [4]. Further, the EC50 in test [1], in test [2], in test [3] and in test [4] was below 50 nM in each case.

Take `CC(C)c1c[nH]c2ccc(Oc3c(Cl)cc(-n4nc(N)c(=O)[nH]c4=O)cc3Cl)cc12` [Compound 41, 6-amino-2-[3,5-dichloro-4-[(3-isopropyl-1H-indol-5-yl)oxy]phenyl]-4H-1,2,4-triazine-3,5-dione]: the Emax was above 75% in test [1], 50 to 75% in test [2], 50 to 75% in test [3] and 50 to 75% in test [4]. Moreover, the 50% effective concentration (EC50) in test [1], in test [2], in test [3] and in test [4] was below 50 nM throughout.

Regarding `Cc1cc(-n2nc(C#N)c(=O)[nH]c2=O)cc(C)c1Oc1ccc2[nH]cc(C(C)C)c2c1` [Compound 2, 2-[4-[(3-isopropyl-1H-indol-5-yl)oxy]-3,5-dimethyl-phenyl]-3,5-dioxo-4H-1,2,4-triazine-6-carbonitrile], the Emax in test [1] was above 75%; in test [2], above 75%; in test [3], below 50%; in test [4] it was above 75%. For the same compound, the EC50 is 50 to 250 nM in test [1], below 50 nM in test [2], below 50 nM in test [3] and 250 to 1000 nM in test [4].

On to `Nc1nn(-c2cc(Cl)c(Oc3cc(C4CCCCC4)c(=O)[nH]n3)c(Cl)c2)c(=O)[nH]c1=O` [Compound 58], for which the Emax was above 75% in test [1], below 50% in test [2], below 50% in test [3] and 50 to 75% in test [4]. Moreover, the EC50 in test [1] is 50 to 250 nM; in test [2] it was below 50 nM; in test [3], 250 to 1000 nM; in test [4], 250 to 1000 nM.

Turning to `Nc1nn(-c2cc(Cl)c(Oc3cc([C@H]4C[C@H](O)C4)c(=O)[nH]n3)c(Cl)c2)c(=O)[nH]c1=O` [Compound 88-A, 6-Amino-2-[3,5-dichloro-4-([6-oxo-5-[(1r,3r)-3-hydroxycyclobutyl]-1H-pyridazin-3-yl]oxy)phenyl]-4H-1,2,4-triazine-3,5-dione], the Emax is below 50% in test [1], below 50% in test [2], below 50% in test [3] and above 75% in test [4]. The EC50 is above 10000 nM in test [1], 1000 to 25000 nM in test [2], above 25000 nM in test [3] and above 10000 nM in test [4].

As for `Nc1nn(-c2cc(Cl)c(Oc3cc(C4Cc5ccccc5C4)c(=O)[nH]n3)c(Cl)c2)c(=O)[nH]c1=O` [Compound 155], the Emax in test [1], in test [2], in test [3] and in test [4] was below 50% in each case. In addition, the EC50 was 250 to 1000 nM in test [1], 50 to 250 nM in test [2], above 25000 nM in test [3] and above 10000 nM in test [4].

Consider `Cc1cc(-n2nc(N)c(=O)[nH]c2=O)cc(C)c1Cc1ccc2c(c1)C1(CCCC1)C(=O)N2` [Compound 150, 6-Amino-2-(3,5-dimethyl-4-((2′-oxospiro[cyclopentane-1,3′-indolin]-5′-yl)methyl)phenyl)-1,2,4-triazine-3,5(2H,4H)-dione], for which the Emax was 50 to 75% in test [1], below 50% in test [2], below 50% in test [3] and 50 to 75% in test [4]. Moreover, the EC50 in test [1], in test [2], in test [3] and in test [4] was below 50 nM each time.

For the origin of these results see patent publication US12180192B2, “Modulators of THR-β and methods of use thereof” (ALIGOS THERAPEUTICS, INC., priority 2019, dated 2024).
